Converted amounts (≈) assume the structure as drawn. “And” between values parts separate entries of the source, which are not always exact repeats. Identical values can stand only once. One block for each compound: values may come before it.
What was measured:
Assay in all cases: ≥ marks a high value that may be exact or a test limit, other limits are often not marked, values filed in µg/mL are converted to µM
[1] = test system: Staphylococcus aureus ATCC 25325
[2] = test system: Enterococcus faecalis ATCC 29212
[3] = test system: Pseudomonas aeruginosa ATCC 27853
[4] = test system: Escherichia coli ATCC 35218
[5] = test system: Candida parapsilosis CEMTC 2529
[6] = test system: Staphylococcus aureus DSM 11729
[7] = test system: Acinetobacter baumannii Al1852-ΔLpxD
[8] = test system: Shigella sonnei DSM 5570
[9] = test system: Candida glabrata CEMTC 2563
[10] = test system: Pseudomonas aeruginosa DSM 1117
[11] = test system: Candida albicans CEMTC 34
[12] = test system: Salmonella enterica DSM 17058
[13] = test system: Staphylococcus epidermidis DSM 28319
[14] = test system: Citrobacter freundii DSM 30029
[15] = test system: Acinetobacter baumannii AL1851-ΔLpxA
[16] = test system: Candida tropicalis CEMTC 2385
[17] = test system: Candida albicans ATCC 10231
[18] = test system: Acinetobacter baumannii ATCC 19606
[19] = test system: Klebsiella pneumoniae DSM 789
[20] = test system: Escherichia coli DSM 1103
[21] = test system: Staphylococcus aureus ATCC 25023
[22] = test system: Colletotrichum graminicola
[23] = test system: Escherichia coli ATCC 25922
[24] = test system: Rhizoctonia solani
[25] = test system: Staphylococcus aureus ATCC 25923
[26] = test system: Fusarium oxysporum
[27] = test system: Pseudomonas aeruginosa ATCC 9027
[28] = test system: Bacillus cereus ATCC 11778
[29] = test system: Klebsiella pneumoniae KK3 9904
[30] = test system: Staphylococcus aureus NCTC 8325
[31] = test system: Staphylococcus epidermidis RP62A
[32] = test system: Enterobacter cloacae HNTCC 53001
[33] = test system: Candida albicans ATCC 90028
[34] = test system: Proteus mirabilis ATCC 25933
[35] = test system: Neisseria gonorrhoeae FA19
[36] = test system: Neisseria gonorrhoeae F62
[37] = test system: Micrococcus luteus BCRC 11034
[38] = test system: Streptococcus pneumoniae BCRC 10794
[39] = test system: Vibrio harveyi BCRC 13812
[40] = test system: Staphylococcus aureus BCRC 10780
[41] = test system: Staphylococcus sp. BCRC 10451
[42] = test system: Vibrio alginolyticus

MIC [1]: ≥ 40.2 µM
MIC [2]: 52.3 µM (≈ 76.2 µg/mL)
MIC [3]: 56 µM (≈ 81.6 µg/mL)
MIC [4]: ≥ 43.4 µM
Structure (SMILES): CC(C)C[C@H](NC(=O)CNC(=O)[C@@H](NC(=O)[C@H](Cc1cnc[nH]1)NC(=O)[C@H](CCCCN)NC(=O)[C@H](CC(C)C)NC(=O)[C@@H](N)CCCCN)C(C)C)C(=O)N[C@@H](Cc1cnc[nH]1)C(=O)N[C@H](C(=O)NCC(=O)N[C@@H](CCCCN)C(=O)N[C@@H](CC(C)C)C(=O)N[C@@H](CCCCN)C(=O)O)C(C)C [KLKHVGLHVGKLK]

MIC [5]: 20 µM (≈ 28.3 µg/mL)
MIC [6]: 16 µM (≈ 22.6 µg/mL)
MIC [7]: ≥ 32 µM
MIC [8]: 2 µM (≈ 2.83 µg/mL)
MIC [9]: 20 µM (≈ 28.3 µg/mL)
MIC [10]: 1 µM (≈ 1.41 µg/mL)
MIC [11]: 20 µM (≈ 28.3 µg/mL)
MIC [12]: 16 µM (≈ 22.6 µg/mL)
MIC [13]: 0.5 µM (≈ 0.706 µg/mL)
MIC [14]: 4 µM (≈ 5.65 µg/mL)
MIC [15]: 16 µM (≈ 22.6 µg/mL)
MIC [16]: 10 µM (≈ 14.1 µg/mL)
MIC [17]: 20 µM (≈ 28.3 µg/mL)
MIC [18]: 32 µM (≈ 45.2 µg/mL)
MIC [19]: ≥ 32 µM
MIC [20]: 2 µM (≈ 2.83 µg/mL)
Structure (SMILES): NCCCC[C@H](NC(=O)[C@H](Cc1ccccc1)NC(=O)[C@H](Cc1ccccc1)NC(=O)[C@H](CCCCN)NC(=O)[C@H](Cc1ccccc1)NC(=O)[C@H](Cc1ccccc1)NC(=O)[C@H](CCCCN)NC(=O)[C@H](Cc1ccccc1)NC(=O)[C@H](Cc1ccccc1)NC(=O)[C@@H](N)CCCCN)C(N)=O [KFFKFFKFFK]

MIC [21]: 1.51 µM (≈ 2 µg/mL)
Structure (SMILES): CC(C)C[C@H](NC(=O)[C@H](CCCN=C(N)N)NC(=O)[C@H](CC(C)C)NC(=O)[C@H](CC(C)C)NC(=O)[C@H](CC(C)C)NC(=O)[C@H](CC(C)C)NC(=O)[C@H](CC(C)C)NC(=O)[C@H](CCCCN)NC(=O)[C@H](Cc1c[nH]c2ccccc12)NC(=O)[C@@H](N)CCCN=C(N)N)C(N)=O [RWKLLLLLRL]

MIC [22]: ≥ 163 µM
MIC [23]: > 125 µM and 163 µM
MIC [24]: ≥ 41.8 µM
MIC [25]: > 125 µM and 163 µM
MIC [26]: ≥ 163 µM
Structure (SMILES): CC(C)[C@H](NC(=O)[C@@H]1CCCN1C(=O)[C@@H](N)Cc1ccccc1)C(=O)N[C@H](C(=O)N[C@@H](Cc1c[nH]c2ccccc12)C(=O)N1CCC[C@H]1C(=O)N[C@H](C(=O)N[C@@H](CCCCN)C(=O)N[C@@H](Cc1c[nH]c2ccccc12)C(=O)N[C@@H](Cc1c[nH]c2ccccc12)C(=O)N[C@@H](CCCCN)C(=O)NCC(N)=O)[C@@H](C)O)[C@@H](C)O [FPVTWPTKWWKG]

MIC [27]: > 50 µM
MIC [28]: ≥ 50 µM
MIC [4]: ≥ 50 µM
MIC [25]: > 50 µM
Structure (SMILES): CC(C)C[C@H](NC(=O)[C@@H](NC(=O)[C@H](CCCCN)NC(=O)[C@H](CCCCN)NC(=O)[C@H](CC(C)C)NC(=O)[C@@H](N)CC(C)C)C(C)C)C(=O)N[C@@H](CCCCN)C(=O)N[C@@H](C)C(=O)N[C@@H](C)C(=O)N[C@@H](C)C(N)=O [LLKKVLKAAA]

MIC [29]: 5 µM (≈ 13.6 µg/mL)
MIC [30]: 20 µM (≈ 54.2 µg/mL)
MIC [31]: 10 µM (≈ 27.1 µg/mL)
MIC [2]: > 80 µM
MIC [32]: 2.5 µM (≈ 6.78 µg/mL)
MIC [3]: 5 µM (≈ 13.6 µg/mL)
MIC [33]: ≥ 80 µM
MIC [23]: 5 µM (≈ 13.6 µg/mL)
MIC [34]: ≥ 80 µM
Structure (SMILES): CC[C@H](C)[C@H](NC(=O)CNC(=O)[C@H](CCCCN)NC(=O)[C@H](Cc1ccccc1)NC(=O)[C@@H](NC(=O)[C@H](CCCCN)NC(=O)[C@H](CCCCN)NC(=O)[C@H](CC(C)C)NC(=O)[C@H](C)NC(=O)[C@H](CCCCN)NC(=O)[C@H](CC(C)C)NC(=O)CN)C(C)C)C(=O)N[C@@H](Cc1cnc[nH]1)C(=O)N[C@@H](CCCCN)C(=O)N[C@@H](C)C(=O)N[C@H](C(=O)N[C@@H](CCCCN)C(=O)N[C@@H](CC(C)C)C(=O)N[C@H](C(=O)N[C@@H](CC(N)=O)C(=O)N[C@@H](CCCCN)C(=O)N[C@@H](Cc1cnc[nH]1)C(=O)N[C@H](C(=O)N[C@@H](CCC(N)=O)C(=O)O)C(C)C)[C@@H](C)CC)[C@@H](C)CC [GLKALKKVFKGIHKAIKLINKHVQ]

MIC [35]: 10 µM (≈ 14 µg/mL)
MIC [36]: 3.2 µM (≈ 4.49 µg/mL)
Structure (SMILES): CC(C)[C@H](NC(=O)[C@@H]1CSSC[C@H](N)C(=O)N[C@@H](Cc2ccc(O)cc2)C(=O)N[C@H]2CSSC[C@H](NC(=O)[C@H](Cc3ccccc3)NC(=O)[C@H](CCCN=C(N)N)NC(=O)[C@H](CCCN=C(N)N)NC(=O)[C@H](CCCN=C(N)N)NC2=O)C(=O)N[C@@H](C(C)C)C(=O)N1)C(N)=O [CYCRRRFCVCV]

MIC [37]: ≥ 33.3 µM
MIC [38]: 16.7 µM (≈ 25.7 µg/mL)
MIC [39]: 4.17 µM (≈ 6.42 µg/mL)
MIC [40]: 4.17 µM (≈ 6.42 µg/mL)
MIC [41]: 4.17 µM (≈ 6.42 µg/mL)
MIC [42]: 4.17 µM (≈ 6.42 µg/mL)
Structure (SMILES): CC[C@H](C)[C@H](NC(=O)[C@H](Cc1ccccc1)NC(C)=O)C(=O)N[C@@H](Cc1ccccc1)C(=O)N[C@@H](Cc1cnc[nH]1)C(=O)N[C@H](C(=O)N[C@H](C(=O)N[C@@H](CCCCN)C(=O)NCC(=O)N[C@@H](CC(C)C)C(=O)N[C@@H](Cc1ccccc1)C(=O)N[C@@H](Cc1cnc[nH]1)C(=O)N[C@@H](C)C(=O)NCC(N)=O)[C@@H](C)CC)[C@@H](C)CC [FIFHIIKGLFHAG]
